Measured values reported in BindingDB's records for patent US12202835 (Beijing Scitech-Mq Pharmaceuticals, 2025).

Legend:
Test in all cases: LANCE TR-FRET Assay
[1] = target: T1, Tyrosine-protein kinase Mer (Homo sapiens, UniProt Q12866)
T1 sequence (Q12866 whole entry): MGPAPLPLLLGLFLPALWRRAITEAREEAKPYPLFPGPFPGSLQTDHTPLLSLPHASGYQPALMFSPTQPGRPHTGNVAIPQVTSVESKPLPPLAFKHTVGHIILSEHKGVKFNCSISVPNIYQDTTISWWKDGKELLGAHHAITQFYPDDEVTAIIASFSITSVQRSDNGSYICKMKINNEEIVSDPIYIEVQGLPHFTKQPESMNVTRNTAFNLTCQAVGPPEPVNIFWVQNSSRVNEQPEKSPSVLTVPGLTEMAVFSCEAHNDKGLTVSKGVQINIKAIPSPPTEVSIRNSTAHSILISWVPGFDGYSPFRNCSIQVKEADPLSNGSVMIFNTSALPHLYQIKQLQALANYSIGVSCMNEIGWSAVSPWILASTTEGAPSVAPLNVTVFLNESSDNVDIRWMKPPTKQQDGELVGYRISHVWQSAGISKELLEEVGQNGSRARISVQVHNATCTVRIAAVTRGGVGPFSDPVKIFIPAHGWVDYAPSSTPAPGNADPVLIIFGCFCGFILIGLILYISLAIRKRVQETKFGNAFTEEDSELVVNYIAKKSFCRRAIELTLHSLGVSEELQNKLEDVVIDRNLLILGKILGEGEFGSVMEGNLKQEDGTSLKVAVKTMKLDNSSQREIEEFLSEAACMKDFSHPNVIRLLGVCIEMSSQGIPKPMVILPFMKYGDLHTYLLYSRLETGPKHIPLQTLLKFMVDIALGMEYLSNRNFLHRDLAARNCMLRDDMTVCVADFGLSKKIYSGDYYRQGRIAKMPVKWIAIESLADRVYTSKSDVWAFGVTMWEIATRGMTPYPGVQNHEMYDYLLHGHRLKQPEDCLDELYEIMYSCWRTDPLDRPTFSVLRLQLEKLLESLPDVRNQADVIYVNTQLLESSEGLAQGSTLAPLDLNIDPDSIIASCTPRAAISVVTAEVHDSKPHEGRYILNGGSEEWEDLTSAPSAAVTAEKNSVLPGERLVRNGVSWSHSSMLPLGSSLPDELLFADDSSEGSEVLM
Method: MER Kinase: The assay of small molecular compounds for inhibiting the activity of MER kinase is based on the LANCE TR-FRET technology of Perkin Elmer Inc., and the assay method is as follows:1. Dilution of compounds: a total of 11 concentrations were obtained using a 3-fold gradient dilution from the highest concentration of 2500 nM (the maximum final concentration of the drug used in this assay was 2500 nM, and the minimum final concentration was 0.042 nM).2. 2.5 μL of the gradient-diluted compounds were taken with a transfer pipette to a 384-well plate.3. Addition of enzyme: 5 μL of 2×MER kinase solution (with a concentration of 1 nM) was taken with a transfer pipette to the corresponding reaction well of the 384-well plate, mixed well and pre-reacted at room temperature for 5 minutes.4. 2.5 μL 4× ULight-labeled Ploy GT (with a concentration of 200 nM)/ATP (with a concentration of 20 μM) mixture was taken with a transfer pipette to the corresponding reaction well of the 384-well plate.5. Negative control: 2.5 μL/well 4× substrate/ATP mixture and 7.5 μL 1× Kinase Assay Buffer were added to the wells of the 384-well plate.Positive control: 2.5 μL/well 4× substrate/ATP mixture, 2.5 μL/well 1× Kinase Assay Buffer containing 4% DMSO, and 5 μL/well 2×MER kinase solution were added to the 384-well plate. The final concentration of DMSO in the reaction system was 1%.6. The mixture was mixed well and then centrifuged and reacted at room temperature in dark for 60 min.7. Termination of the enzymatic reaction: 5 μL of 4× stop solution was taken with a transfer pipette to the wells of the 384-well plate, mixed and then centrifuged, and reacted at room temperature for 5 min.8. Development of the reaction: 5 μL of 4× detection solution was taken with a transfer pipette to the wells of the 384-well plate for color development, and the mixture was mixed and then centrifuged and reacted at room temperature for 60 min.9. The 384-well plate was placed into the Envision plate reader and the signal was detected using the appropriate program.10. Analysis and processing of the raw data:The drug concentrations and the corresponding inhibition rates were input into GraphPad Prism5 for calculation, and the inhibition rate of the compounds were calculated as follows: inhibition rate (%)=(reading of positive well−reading of experimental well)/(reading of positive control well−reading of negative control well)×100%.

[2] = target: High affinity nerve growth factor receptor (Homo sapiens, UniProt P04629)
Method: TRKA Kinase: The assay of small molecular compounds for inhibiting the activity of TRKA kinase is based on the LANCE TR-FRET technology of Perkin Elmer Inc., and the assay method is as follows:1. […] 2.5 μL of the gradient-diluted compounds were taken with a transfer pipette to a 384-well plate.3. Addition of enzyme: 5 μL of 2×TRKA kinase solution (with a concentration of 2 nM) was taken with a transfer pipette to the corresponding reaction well of the 384-well plate, mixed well and pre-reacted at room temperature for 5 minutes.4. 2.5 μL 4× Ultra ULight-labeled TK Peptide (with a concentration of 400 nM)/ATP (with a concentration of 40 μM) mixture was taken with a transfer pipette to the corresponding reaction well of the 384-well plate.5. Negative control: 2.5 μL/well 4× substrate/ATP mixture and 7.5 μL 1× Kinase Assay Buffer were added to the wells of the 384-well plate.Positive control: 2.5 μL/well 4× substrate/ATP mixture, 2.5 μL/well 1× Kinase Assay Buffer containing 4% DMSO, and 5 μL/well 2×TRKA kinase solution were added to the 384-well plate. The final concentration of DMSO in the reaction system was 1%.6. The mixture was mixed well and then centrifuged and reacted at room temperature in dark for 60 min.7. Termination of the enzymatic reaction: 5 μL of 4× stop solution was taken with a transfer pipette to the wells of the 384-well plate, mixed and then centrifuged, and reacted at room temperature for 5 min.8. Development of the reaction: 5 μL of 4× detection solution was taken with a transfer pipette to the wells of the 384-well plate for color development, and the mixture was mixed and then centrifuged and reacted at room temperature for 60 min.9. The 384-well plate was placed into the Envision plate reader and the signal was detected using the appropriate program.10.

[3] = target: Vascular endothelial growth factor receptor 2 (Homo sapiens, UniProt P35968)
Method: VEGFR-2 Kinase: The assay is based on the LANCE TR-FRET technology of Perkin Elmer Inc., and the assay method is as follows:1. Dilution of compounds: a total of 11 concentrations were obtained using a 3-fold gradient dilution from the highest concentration of 2500 nM (the maximum final concentration of the drug used in this assay was 2500 nM, and the minimum final concentration was 0.042 nM).2. 2.5 μL of the gradient-diluted compounds were taken with a transfer pipette to a 384-well plate.3. Addition of enzyme: 5 μL of 2×VEGFR2 kinase solution (with a concentration of 0.5 nM) was taken with a transfer pipette to the corresponding reaction well of the 384-well plate, mixed well and pre-reacted at room temperature for 30 minutes.4. 2.5 μL 4× Ultra ULight™-JAK-1 (Tyr1023) Peptide (with a concentration of 200 nM)/ATP (with a concentration of 40 μM) mixture was taken with a transfer pipette to the corresponding reaction well of the 384-well plate.5. Negative control: 2.5 μL/well 4× substrate/ATP mixture and 7.5 μL 1× Kinase Assay Buffer were added to the wells of the 384-well plate.6. Positive control: 2.5 μL/well 4× substrate/ATP mixture, 2.5 μL/well 1× Kinase Assay Buffer containing 16% DMSO, and 5 μL/well 2×VEGFR-2 kinase solution were added to the 384-well plate. […] The 384-well plate was placed into the Envision plate reader and the signal was detected using the appropriate program.11. […]

[4] = target: Hepatocyte growth factor receptor (Homo sapiens, UniProt P08581)
Method: c-MET Kinase: The assay is based on the LANCE TR-FRET technology of Perkin Elmer Inc., and the assay method is as follows:1. Dilution of compounds: a total of 11 concentrations were obtained using a 3-fold gradient dilution from the highest concentration of 2500 nM (the maximum final concentration of the drug used in this assay was 2500 nM, and the minimum final concentration was 0.042 nM).2. 2.5 μL of the gradient-diluted compounds were taken with a transfer pipette to a 384-well plate.3. Addition of enzyme: 5 μL of 2×c-MET kinase solution (with a concentration of 2 nM) was taken with a transfer pipette to the corresponding reaction well of the 384-well plate, mixed well and pre-reacted at room temperature for 5 minutes.4. 2.5 μL 4× Ultra ULight™-JAK-1 (Tyr1023) Peptide (with a concentration of 400 nM)/ATP (with a concentration of 40 μM) mixture was taken with a transfer pipette to the corresponding reaction well of the 384-well plate.5. Negative control: 2.5 μL/well 4× substrate/ATP mixture and 7.5 μL 1× Kinase Assay Buffer were added to the wells of the 384-well plate.6. Positive control: 2.5 μL/well 4× substrate/ATP mixture, 2.5 μL/well 1× Kinase Assay Buffer containing 16% DMSO, and 5 μL/well 2× c-MET kinase solution were added to the 384-well plate. The final concentration of DMSO in the reaction system was 4%.7. The mixture was mixed well and then centrifuged and reacted at room temperature in dark for 60 min.8. Termination of the enzymatic reaction: 5 μL of 4× stop solution was taken with a transfer pipette to the wells of the 384-well plate, mixed and then centrifuged, and reacted at room temperature for 5 min.9. Development of the reaction: 5 μL of 4× detection solution was taken with a transfer pipette to the wells of the 384-well plate for color development, and the mixture was mixed and then centrifuged and reacted at room temperature for 60 min.10. The 384-well plate was placed into the Envision plate reader and the signal was detected using the appropriate program.11. Analysis and processing of the raw data:12. […]

Measured: IC50

High affinity nerve growth factor receptor, sequence (P04629 whole entry): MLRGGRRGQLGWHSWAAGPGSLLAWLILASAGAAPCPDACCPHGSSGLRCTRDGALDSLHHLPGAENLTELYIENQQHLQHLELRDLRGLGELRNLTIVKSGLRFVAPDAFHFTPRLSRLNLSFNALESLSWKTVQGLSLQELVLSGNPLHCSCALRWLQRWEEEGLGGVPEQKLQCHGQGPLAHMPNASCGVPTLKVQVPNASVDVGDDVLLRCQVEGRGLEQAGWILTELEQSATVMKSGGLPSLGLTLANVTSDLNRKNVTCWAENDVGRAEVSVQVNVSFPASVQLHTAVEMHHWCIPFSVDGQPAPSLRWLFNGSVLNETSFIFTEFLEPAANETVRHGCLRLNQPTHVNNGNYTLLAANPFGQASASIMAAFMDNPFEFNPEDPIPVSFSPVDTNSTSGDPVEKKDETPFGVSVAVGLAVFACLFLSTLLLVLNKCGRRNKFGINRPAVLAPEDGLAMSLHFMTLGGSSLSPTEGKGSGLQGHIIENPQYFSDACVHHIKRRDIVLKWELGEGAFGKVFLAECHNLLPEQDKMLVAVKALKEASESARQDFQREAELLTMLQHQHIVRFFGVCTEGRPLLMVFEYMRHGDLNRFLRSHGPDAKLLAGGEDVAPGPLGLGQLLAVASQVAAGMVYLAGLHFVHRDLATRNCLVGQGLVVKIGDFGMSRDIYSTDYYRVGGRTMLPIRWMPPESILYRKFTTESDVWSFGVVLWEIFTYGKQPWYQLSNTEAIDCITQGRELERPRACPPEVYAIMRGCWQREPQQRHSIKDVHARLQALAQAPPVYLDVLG
Hepatocyte growth factor receptor, sequence (P08581 whole entry): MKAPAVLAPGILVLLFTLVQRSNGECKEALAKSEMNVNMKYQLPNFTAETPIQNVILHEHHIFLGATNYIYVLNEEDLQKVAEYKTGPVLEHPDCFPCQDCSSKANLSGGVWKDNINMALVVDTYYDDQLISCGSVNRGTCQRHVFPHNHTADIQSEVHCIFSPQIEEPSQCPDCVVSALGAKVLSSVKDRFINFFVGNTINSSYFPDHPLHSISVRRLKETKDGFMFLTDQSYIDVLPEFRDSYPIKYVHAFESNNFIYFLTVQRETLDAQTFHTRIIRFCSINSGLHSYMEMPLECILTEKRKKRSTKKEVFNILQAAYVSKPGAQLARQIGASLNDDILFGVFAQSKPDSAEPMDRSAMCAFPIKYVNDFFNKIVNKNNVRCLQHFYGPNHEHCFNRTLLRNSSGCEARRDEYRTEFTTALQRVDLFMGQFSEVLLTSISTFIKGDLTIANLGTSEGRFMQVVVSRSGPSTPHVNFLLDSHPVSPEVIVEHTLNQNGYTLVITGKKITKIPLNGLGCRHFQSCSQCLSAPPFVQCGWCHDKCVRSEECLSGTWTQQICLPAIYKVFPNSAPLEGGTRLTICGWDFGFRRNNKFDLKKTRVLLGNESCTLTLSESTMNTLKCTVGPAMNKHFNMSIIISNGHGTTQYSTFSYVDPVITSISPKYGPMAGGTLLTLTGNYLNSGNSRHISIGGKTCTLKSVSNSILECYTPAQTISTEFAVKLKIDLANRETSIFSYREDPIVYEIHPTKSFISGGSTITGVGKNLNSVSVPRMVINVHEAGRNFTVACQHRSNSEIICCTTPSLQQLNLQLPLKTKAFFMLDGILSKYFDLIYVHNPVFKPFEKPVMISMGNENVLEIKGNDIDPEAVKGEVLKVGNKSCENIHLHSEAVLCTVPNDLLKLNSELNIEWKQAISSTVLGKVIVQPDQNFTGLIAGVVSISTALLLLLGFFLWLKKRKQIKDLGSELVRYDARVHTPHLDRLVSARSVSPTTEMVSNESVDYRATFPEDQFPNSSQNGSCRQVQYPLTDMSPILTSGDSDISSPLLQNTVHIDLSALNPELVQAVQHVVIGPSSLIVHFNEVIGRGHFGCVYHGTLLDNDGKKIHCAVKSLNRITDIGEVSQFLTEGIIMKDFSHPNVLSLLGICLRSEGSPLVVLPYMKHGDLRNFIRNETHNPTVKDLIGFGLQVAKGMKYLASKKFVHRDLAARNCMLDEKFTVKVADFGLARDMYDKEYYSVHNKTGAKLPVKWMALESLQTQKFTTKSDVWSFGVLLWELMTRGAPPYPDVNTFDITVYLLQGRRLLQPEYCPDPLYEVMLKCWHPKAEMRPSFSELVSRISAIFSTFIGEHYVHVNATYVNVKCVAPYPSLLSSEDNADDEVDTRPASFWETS
Vascular endothelial growth factor receptor 2, sequence (P35968 whole entry): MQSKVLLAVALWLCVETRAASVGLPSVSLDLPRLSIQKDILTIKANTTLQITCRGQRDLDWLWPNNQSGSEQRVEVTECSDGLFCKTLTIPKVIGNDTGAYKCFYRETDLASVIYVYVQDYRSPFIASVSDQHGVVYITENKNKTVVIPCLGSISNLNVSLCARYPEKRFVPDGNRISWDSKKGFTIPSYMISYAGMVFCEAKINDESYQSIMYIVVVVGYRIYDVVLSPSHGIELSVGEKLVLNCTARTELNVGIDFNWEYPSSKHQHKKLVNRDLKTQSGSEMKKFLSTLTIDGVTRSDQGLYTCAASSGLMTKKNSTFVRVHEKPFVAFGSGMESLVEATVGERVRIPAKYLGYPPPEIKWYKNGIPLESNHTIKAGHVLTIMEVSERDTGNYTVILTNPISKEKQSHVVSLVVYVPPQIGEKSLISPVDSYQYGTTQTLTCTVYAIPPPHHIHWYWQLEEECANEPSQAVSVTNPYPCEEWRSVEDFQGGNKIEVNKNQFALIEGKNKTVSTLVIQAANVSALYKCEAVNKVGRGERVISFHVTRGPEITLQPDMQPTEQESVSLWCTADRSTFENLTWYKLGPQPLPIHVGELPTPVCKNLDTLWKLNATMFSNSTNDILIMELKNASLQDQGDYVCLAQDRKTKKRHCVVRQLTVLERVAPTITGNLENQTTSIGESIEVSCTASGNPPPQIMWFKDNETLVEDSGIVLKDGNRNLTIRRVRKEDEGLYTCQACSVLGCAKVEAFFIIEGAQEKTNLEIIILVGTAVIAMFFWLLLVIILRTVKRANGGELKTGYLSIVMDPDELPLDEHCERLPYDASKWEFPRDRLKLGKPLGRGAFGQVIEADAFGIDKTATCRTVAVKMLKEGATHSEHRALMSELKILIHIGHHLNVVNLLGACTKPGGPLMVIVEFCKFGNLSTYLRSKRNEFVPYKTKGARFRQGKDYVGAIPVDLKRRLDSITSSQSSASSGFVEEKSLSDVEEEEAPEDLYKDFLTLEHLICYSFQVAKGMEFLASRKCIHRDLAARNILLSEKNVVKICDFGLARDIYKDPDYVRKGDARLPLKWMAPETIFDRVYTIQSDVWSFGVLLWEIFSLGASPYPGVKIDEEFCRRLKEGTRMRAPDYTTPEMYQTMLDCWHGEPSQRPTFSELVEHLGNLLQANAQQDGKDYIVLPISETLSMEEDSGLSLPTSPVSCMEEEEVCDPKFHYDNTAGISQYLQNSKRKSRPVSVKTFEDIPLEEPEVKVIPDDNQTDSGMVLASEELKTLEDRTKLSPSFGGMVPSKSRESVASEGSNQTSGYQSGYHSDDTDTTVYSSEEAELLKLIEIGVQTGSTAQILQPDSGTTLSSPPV

CC(C)n1cc(C(=O)Nc2ccc(Oc3ccnc4cc(OCCCCCCN(C)C)c5c(c34)OCCO5)c(F)c2)c(=O)n(-c2ccc(F)cc2)c1=O [US12202835, Example 85]
< 50 nM: [1] | [2]

CCOc1ccn(-c2ccc(F)cc2)c(=O)c1C(=O)Nc1ccc(Oc2ccnc3cc(OCCCCCCN(C)C)c4c(c23)OCCO4)c(F)c1 [US12202835, Example 60]
< 50 nM: all assays above

CCOc1ccn(-c2ccc(F)cc2)c(=O)c1C(=O)Nc1ccc(Oc2ccnc3cc(OCCCN(C)C)c4c(c23)OCCO4)c(F)c1 [US12202835, Example 61]
< 50 nM: all assays above

CN(C)CCCOc1cc2nccc(Oc3ccc(NC(=O)c4cn(C)c(=O)n(-c5ccc(F)cc5)c4=O)cc3F)c2c2c1OCCO2 [US12202835, Example 86]
< 50 nM: [1] | [2] | [4]
